# Measured values from PubChem BioAssay AID1949 (Southern Research Institute, 2009).
# Records with an inconclusive call do not appear. The source made the active and inactive calls. The rule behind the calls is not given here.
# Tested on: M. tuberculosis H37Rv growth inhibition
# Assay: Confirmatory growth inhibition assay against Mycobacterium tuberculosis H37Rv, potency (AID 1949);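 note: bacteria grown 7 days with compound before Alamar blue readout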
row,SMILES,IC50
1,O=C(Nc1ccc(F)c(Cl)c1)C1CC2CCCC(C1)C2=O (stereo not drawn),39.7 µg/mL
2,CCC(=O)Oc1cccc2ccc(/C=C/c3ccccc3F)nc12,< 0.1 µg/mL
3,O=C(Nc1cccc(Cl)c1)c1cc(Br)ccc1Cl,1.53 µg/mL
4,Cc1ccc(C2=CC(c3cccc([N+](=O)[O-])c3)n3nnnc3N2)cc1C (stereo not drawn),12.2 µg/mL
5,COC(=O)c1ccc(/C=C/C(=O)c2cccs2)cc1,29.1 µg/mL
6,COc1cccc(OC)c1C(=O)Nc1cccc(-c2nc3cc(C)ccc3o2)c1,> 50 µg/mL (inactive)
7,Cc1ccc(-n2c(=O)oc3ccc(Cl)cc3c2=O)cc1,> 50 µg/mL (inactive)
8,CCn1c(/C=C/c2ccc(F)cc2)nc2ccccc21,8.17 µg/mL
9,CC1C(c2ccccc2)=[N+]([O-])C(C)(c2ccc(F)cc2)N1O (stereo not drawn),> 50 µg/mL (inactive)
10,Cc1ccc(-c2ccc(OCC(=O)OCc3ccccc3)cc2)cc1,0.23 µg/mL
11,O=[N+]([O-])c1ccc2nc(CSc3nc4ccccc4o3)[nH]c2c1,3.21 µg/mL
12,Cc1ccc(C(=O)N2CCN(c3ccc(NC(=O)COc4c(C)cc(C)cc4Cl)cc3)CC2)cc1,8.74 µg/mL
13,CCCCc1cc(=O)oc2cc(OC(C)C(=O)OCC)c(Cl)cc12 (stereo not drawn),< 0.1 µg/mL
14,CCOc1cc2c3c(c1)C1(C(=O)N3C(C)(C)C=C2C)C(C#N)=C(N)Oc2cc(O)ccc21 (stereo not drawn),3.09 µg/mL
15,CCOc1ccc(NCCC(=O)c2ccc3c(c2)OCO3)cc1,3.32 µg/mL
16,CCOC(=O)Cc1c(C)nc2c(-c3cccc(Br)c3)c[nH]n2c1=O,1.69 µg/mL
17,CC1(C)CC(=O)C2=C(C1)NC1=C(C(=O)c3ccccc31)C2c1ccc(C(F)(F)F)cc1 (stereo not drawn),30.3 µg/mL
18,Cc1ccc(C(=O)NCCC2=CCCCC2)cc1I,2.92 µg/mL
19,OC(CN1CCN(C(c2ccccc2)c2ccccc2)CC1)Cn1c2ccccc2c2ccccc21 (stereo not drawn),10.7 µg/mL
20,CSc1ccccc1NC(=O)c1ccc(Cl)s1,5.6 µg/mL

row,SMILES,IC50
1,O=C(Nc1ccccc1)Nc1ccc(S(=O)(=O)Nc2cccc(C(F)(F)F)c2)cc1,2.28 µg/mL
2,COc1cccc(N2CCN(Cc3nc(N)nc(Nc4ccc(C)c(C)c4)n3)CC2)c1,2.82 µg/mL
3,COc1cc2c(cc1NC(=O)Nc1ccc(Cl)cc1)oc1ccccc12,1.33 µg/mL
4,Cc1ccc(-c2csc3nc(SCC(N)=O)n(-c4ccccc4)c(=O)c23)cc1C,2.98 µg/mL
5,CC1CCc2c(sc3ncn(C(C)C(=O)OCc4ccccc4)c(=O)c23)C1 (stereo not drawn),1.53 µg/mL
6,CNc1nc(N2CCc3ccccc32)ncc1F,0.91 µg/mL
7,Cc1cccc(-c2nnc(SCC(=O)NCCc3ccccc3)o2)c1,0.25 µg/mL
8,O=[N+]([O-])c1ccc(Sc2n[nH]c(-c3ccccc3)n2)nc1,10 µg/mL
9,O=C(CC12CC3CC(CC(C3)C1)C2)NC(=S)Nc1ccc(-c2nc3ccccc3[nH]2)cc1,1.46 µg/mL
10,COc1nc(SC)nc2sc3c(c12)CCC3,1.47 µg/mL
11,O=S(Cc1ccccc1)c1nc2ccccc2s1 (stereo not drawn),3.15 µg/mL
12,Cc1ccc(-c2nnc(SC3=CS(=O)(=O)c4ccccc43)o2)cc1,> 50 µg/mL (inactive)
13,CCOC(=O)C(C)Oc1ccc2c(-c3ccc(OC)cc3)cc(=O)oc2c1 (stereo not drawn),1.35 µg/mL
14,Cc1cc(Cl)c(OCCCNCc2ccccc2)c(Br)c1,11.3 µg/mL
15,CCOC(=O)c1cnc2ccc(OC)cc2c1Nc1ccc2c(c1)OCCO2,2.9 µg/mL
16,CCc1ccc(C(=O)NC(=S)Nc2ccc(Cc3ccncc3)cc2)cc1,10.9 µg/mL
17,O=C(Nc1ccc(Cl)c(C(F)(F)F)c1)c1ccc2c(c1)OCO2,> 50 µg/mL (inactive)
18,Cc1ccccc1NC(=O)c1c(NC(=O)CN2CCN(C)CC2)sc2c1CCC(C(C)(C)C)C2 (stereo not drawn),40.2 µg/mL
19,COC(=O)C1=C(C)N(c2cc(Cl)cc(Cl)c2)C(=O)C1,6.04 µg/mL
20,COc1ccc2nc(C)c3cc(C)oc3c2c1,1.82 µg/mL

row,SMILES,IC50
1,COc1ccc2cc(-c3nn(-c4ccccc4)cc3CO)ccc2c1,> 50 µg/mL (inactive)
2,CCc1ccc(OCC(=O)Nc2ccc(N3CCN(C(=O)c4cccs4)CC3)c(Cl)c2)cc1,2.95 µg/mL
3,COc1cc(/C=C/c2ccc3cccc(O)c3n2)ccc1O,0.27 µg/mL
4,O=C(NC1CCCCC1)c1ccc(COc2cccc3ccccc23)o1,4.65 µg/mL
5,CC(C)(C)NCCCCOc1ccc(Cl)cc1C(C)(C)C,3.77 µg/mL
6,O=C(CCNc1cccc(F)c1)c1ccccc1,8.2 µg/mL
7,COc1ccc(-c2c(C)oc3cc(OCC(=O)OC(C)C)ccc3c2=O)cc1OC,1.36 µg/mL
8,COc1cc([N+](=O)[O-])ccc1NC(=O)c1cc(Cl)ccc1O,0.12 µg/mL
9,c1ccc(CCc2ccccc2-c2nc(-c3ccncc3)no2)cc1,8.77 µg/mL
10,Cc1cc(=O)oc2c(C)c(OCC(=O)OCc3ccccc3)ccc12,2.11 µg/mL
11,COc1ccc2oc(=O)c(C(=O)Oc3ccc(Cl)cc3)cc2c1,> 50 µg/mL (inactive)
12,COc1ccc(OCCC(=O)Nc2nc(C3CCCCC3)cs2)cc1,25.5 µg/mL
13,O=S(=O)(Nc1cc(Sc2ccccc2)c(O)c2ccccc12)c1cccs1,25.7 µg/mL
14,O=C(Nc1ccc(C(F)(F)F)cc1)Nc1cccc(F)c1,0.76 µg/mL
15,CCOC(=O)COc1ccc(C(=O)Nc2ccc(F)cc2)cc1,< 0.1 µg/mL
16,COc1ccccc1Nc1nc(N)nc(CN2CCC(Cc3ccccc3)CC2)n1,37.8 µg/mL
17,Cc1ccc(C)c(OCC(=O)Nc2ccc(C(=O)OC(C)C)cc2)c1C,3.77 µg/mL
18,COc1ccc(NC(=S)Nc2cccc(C(F)(F)F)c2)c([N+](=O)[O-])c1,23.3 µg/mL
